This test deals with BALB/cJ mice. As to the kind of experiment: Prepulse inhibition of startle. It is filed as in vivo, mouse. The method, then:
For chronic fluoxetine studies in BALB/cJ mice, 60 male BALB/cJ mice were tested in the OF for 30 min on days 19 or 20 of chronic fluoxetine treatment. Mice were then pretested and tested in the modified FST on days 21 and 22, respectively. Animals were then allowed to adapt to being singly housed, and were trained for NIH on days 25-27. Home cage and novel cage testing occurred on days 28 and 29, respectively. Mice were then assessed for PPI on days 34 or 35.
Studies of subchronic fluoxetine were conducted using separate groups of 60 male BALB/cJ mice to prevent fluoxetine treatment from exceeding one week. One group was tested in the OF after one day of subchronic fluoxetine treatment. Mice were then pretested after 6 and tested after 7 days of subchronic fluoxetine treatment in the modified FST. A second group of BALB/cJ mice began fluoxetine treatment after being singly housed. They were then tested in the NIH test after 4 (home) and 5 (novel) days of subchronic fluoxetine treatment. A third group was tested for PPI after one or two days of subchronic fluoxetine treatment.
Prepulse Inhibition: Startle experiments were performed in MED-Associates chambers. Nonrestrictive Plexiglas cylinders 5 cm in diameter rested on a Plexiglas platform with a transducer amplifier. The sound-dampening isolation chambers were ventilated, well-lit, and equipped with an acoustic stimulator. Data acquisition was performed using Med-Associates software.
Five different trial types were presented in the test session: a 40-msec broadband 120 dB burst (PULSE ALONE trial); three different PREPULSE+PULSE trials in which 20-msec long 3 dB (pp3), 6 dB (pp6), or 12 dB (pp12) stimuli above a 70 dB background preceded the 120 dB pulse by 100 msec (onset to onset), and a NO STIMULUS trial, in which only the background noise was presented. Trials were presented in a pseudo-random order. A variable interval of 10-20 seconds separated trials.
The test session consisted of 62 test trials. The session began with a 10 min acclimation period, followed by four consecutive blocks of test trials. Blocks one and four consisted of six consecutive PULSE ALONE trials, while blocks two and three contained six PULSE ALONE trials, five pp3+p120 trials, five pp6+p120 trials, five pp12+p120 trials, and four NO STIMULUS trials. Analyses were performed using average values for each trial type.
Prepulse Inhibition: PPI was calculated as the averaged startle magnitude caused by PULSE ALONE trials from blocks two and three, minus the averaged startle magnitude caused by the prepulse-pulse trials, all divided by the averaged PULSE ALONE values from blocks two and three. The resulting value was multiplied by 100 and presented as a percent PPI value. Four-factor ANOVAs with fluoxetine and RU24969 as between subjects factors and prepulse intensity and block as within subjects variables assessed percent PPI levels. Interactions were resolved using post-hoc ANOVAs with adjusted p-values, and/or Newman-Keuls post-hoc tests.

Molecules are shown by their SMILES.

As to `CNCCC(Oc1ccc(C(F)(F)F)cc1)c1ccccc1` (stereo not drawn) [fluoxetine], the “PPI in RU24969-treated mice” value (chronic 10 mg/kg/day fluoxetine, 12 dB prepulse intensity) was “increased PPI relative to RU24969-treated mice receiving 0 and 18 mg/kg/day fluoxetine”. For the setting “chronic fluoxetine”, the “Startle reactivity, interactions of RU24969 with fluoxetine” value was “no interactions”. The “RU24969-induced disruption of PPI” value (chronic fluoxetine 10, 18, 25 mg/kg/day, 10 mg/kg RU24969, 3, 6, 12 dB prepulse) is reported as “RU24969 disrupted PPI in control mice, but not mice treated with any dose of fluoxetine”. Moreover, the “PPI, fluoxetine alone” value (chronic fluoxetine without RU24969) is given as “No effects”. Besides, the “PPI, interactions of RU24969 with fluoxetine” value (subchronic fluoxetine (1-2 days)) is “No interactions”. For the setting “subchronic fluoxetine study (1-2 days), 10 mg/kg RU24969”, the “startle reactivity in the second and third blocks” value is listed as “no effects”.

For the origin of these results see patent US20050186137A1, “Novelty-induced hypophagia-based assays for identifying agents to treat anxiety and depression” (priority 2003, published 2005).
